The target of one assay is T1, human H1R (Homo sapiens, UniProt P35367).
T1 construct: expressed in transfected cells; host or cells: CHO cells
Nature of the assay: Ca2+ mobilization assay on human H1R-expressing CHO cells. The assay is classed as cell-based. To be noted: Gaddum equation, shift in histamine EC25 with 1 μM antagonist. The method, then:
CHO cells expressing H1R were grown to confluence in black-walled, clear-bottom 96-well plates. On the day of the experiment, media were replaced with 100 μL of HBSS containing […], 2.3 μM Fluo-4AM (Invitrogen), 0.023% Pluronic F-127, 0.5 mM Brilliant Black BN, and 1 μM required fluorescent ligand and the plates incubated for 1 h at 37 °C in the dark. The plates were then placed in the multi-well fluorometric imaging plate reader FlexStation3 (Molecular Devices, Sunnyvale, CA) and HBSS only or HBSS containing the required concentration of histamine was added after 15 s. Fluo-4 fluorescence was measured at 520 nm (excitation at 485 nm) every 1.52 s for 200 s. For each well, the peak maximum–minimum–maximum change in fluorescence value was taken and plotted against concentration of histamine to give a dose–response curve.
Estimated affinity values (pKB) were calculated from the shift in agonist concentration–response curves in the presence of the fluorescent antagonists using the Gaddum equation (7): [drawing 10] 7 where DR (dose ratio) is the ratio of the agonist concentration required to stimulate an identical response in the presence and absence of antagonist, [B]. DR was determined from the EC25 value as there was a decrease in observed maximal efficacy of histamine in the presence of all 10 fluorescent antagonists.
(A change in cytosolic calcium serves as a functional read-out for many receptors and channels.)

Another assay addresses Nluc-H1R (Homo sapiens, UniProt P35367). Nature of the assay: NanoBRET saturation binding assay on Nluc-H1R expressing HEK293T cells. Set-up: expressed in transfected cells. To be noted: saturation binding curves, whole HEK293T cells; for pKD: non-specific with 10 μM mepyramine, mean ± SEM. The text has this: Total and non-specific saturation binding curves from NanoBRET saturation binding assay were fitted simultaneously using eq 1: [drawing 4] 1 where Bmax is the maximal specific binding, [B] is the concentration of fluorescent ligand in nM, KD is the equilibrium dissociation constant in nM, M is the slope of the non-specific component, and C is the intercept with the Y axis.

Where two headings read alike, the source gives them in different places. Square brackets hold non-standard residues; d marks the D form. Side chains are listed from the residue outwards. Peptide text beside a SMILES is read from it. * marks the point of attachment. X1 = O=C(COc1ccc(/C=C/C2=[N+]3C(=Cc4ccc(-c5cccs5)n4[B-]3(F)F)C=C2)cc1)*; Propanoyl(3-Pip(4-O-2-BnPh)) = O=C(CCN1CCC(Oc2ccccc2Cc2ccccc2)CC1)*; X3 = Cc1cc(C)n2c1C=C1C=CC(/C=C/c3ccc(OCC(=O)*)cc3)=[N+]1[B-]2(F)F; BODIPY(FL) = CC1=CC(C)=[N+]2C1=Cc1ccc(CCC(=O)*)n1[B-]2(F)F; X2 = O=C(CCC1=[N+]2C(=Cc3ccc(-c4cccs4)n3[B-]2(F)F)C=C1)*; Ahx = NCCCCCC(=O)O; βAla = NCCC(=O)O

Broadly, the Kd is the concentration at which binding is half-saturated. A lower Kd goes with higher affinity. For orientation: pKD means −log10 of the KD, conventionally taken in molar units. A lower pKD goes with a high KD.

T1 sequence (P35367 whole entry): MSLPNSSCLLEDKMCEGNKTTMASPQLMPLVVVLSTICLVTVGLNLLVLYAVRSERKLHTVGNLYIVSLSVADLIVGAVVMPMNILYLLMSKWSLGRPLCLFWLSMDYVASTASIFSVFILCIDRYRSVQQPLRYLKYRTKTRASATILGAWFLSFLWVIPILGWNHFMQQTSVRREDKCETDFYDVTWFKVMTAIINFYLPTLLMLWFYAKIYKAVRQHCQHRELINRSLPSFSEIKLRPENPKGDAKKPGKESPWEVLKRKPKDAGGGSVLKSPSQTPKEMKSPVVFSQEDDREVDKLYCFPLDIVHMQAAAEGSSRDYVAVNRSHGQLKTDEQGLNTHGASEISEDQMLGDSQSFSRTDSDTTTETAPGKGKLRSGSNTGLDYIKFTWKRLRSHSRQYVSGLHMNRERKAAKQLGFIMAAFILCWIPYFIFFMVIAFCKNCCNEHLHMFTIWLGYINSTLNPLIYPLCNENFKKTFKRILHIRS
Sequence of Nluc-H1R (P35367 whole entry): as above

As to `Cc1cc(C)n2c1C=C1C=CC(/C=C/c3ccc(OCC(=O)NCCCC[C@H](NC(=O)CCNC(=O)[C@H](CC(N)=O)NC(=O)[C@H](CO)NC(=O)[C@@H](NC(=O)CCN4CCC(Oc5ccccc5Cc5ccccc5)CC4)C(C)C)C(N)=O)cc3)=[N+]1[B-]2(F)F` [Compound 38b, (S)-N^1-(3-(((S)-1-Amino-6-(2-(4-((E)-2-(5,5-difluoro-7,9-dimethyl-5H-5λ^4,6λ^4-dipyrrolo[1,2-c:2’,1’-f][1,3,2]diazaborinin-3-yl)vinyl)phenoxy)acetamido)-1-oxohexan-2-yl)amino)-3-oxopropyl)-2-((S)-2-((S)-2-(3-(4-(2-benzylphenoxy)piperidin-1-yl)propanamido)-3-methylbutanamido)-3-hydroxypropanamido)succinamide] ({Propanoyl(3-Pip(4-O-2-BnPh))}-VSN[βAla]K(X3)-NH2), the Kb on human H1R (mean ± SEM, four experiments, read-out: pKB (converted)) was 110 nM. Also, on Nluc-H1R, the affinity, expressed as Kd, was 66 nM and the pKD was found to be 7.18 ± 0.11.
Regarding `CC(C)[C@H](NC(=O)CCN1CCC(Oc2ccccc2Cc2ccccc2)CC1)C(=O)N[C@@H](CO)C(=O)N[C@@H](CC(N)=O)C(=O)NCCC(=O)N[C@@H](CCCCNC(=O)CCC1=[N+]2C(=Cc3ccc(-c4cccs4)n3[B-]2(F)F)C=C1)C(N)=O` [Compound 38c, (S)-N^1-(3-(((S)-1-Amino-6-(3-(5,5-difluoro-7-(thiophen-2-yl)-5H-5λ^4,6λ^4-dipyrrolo[1,2-c:2’,1’-f][1,3,2]diazaborinin-3-yl)propanamido)-1-oxohexan-2-yl)amino)-3-oxopropyl)-2-((S)-2-((S)-2-(3-(4-(2-benzylphenoxy)piperidin-1-yl)propanamido)-3-methylbutanamido)-3-hydroxypropanamido)succinamide] ({Propanoyl(3-Pip(4-O-2-BnPh))}-VSN[βAla]K(X2)-NH2), on human H1R (read-out: KB (converted)), the Kb is 302 nM. At Nluc-H1R, this molecule gave a Kd of 209 nM and a pKD of 6.68 ± 0.10.
As to `Cc1cc(C)n2c1C=C1C=CC(CCC(=O)NCCCC[C@H](NC(=O)CCNC(=O)[C@H](CC(N)=O)NC(=O)[C@H](CO)NC(=O)[C@@H](NC(=O)CCN3CCC(Oc4ccccc4Cc4ccccc4)CC3)C(C)C)C(N)=O)=[N+]1[B-]2(F)F` [Compound 38d, (S)-N^1-(3-(((S)-1-Amino-6-(3-(5,5-difluoro-7,9-dimethyl-5H-4λ^4,5λ^4-dipyrrolo[1,2-c:2’,1’-f][1,3,2]diazaborinin-3-yl)propanamido)-1-oxohexan-2-yl)amino)-3-oxopropyl)-2-((S)-2-((S)-2-(3-(4-(2-benzylphenoxy)piperidin-1-yl)propanamido)-3-methylbutanamido)-3-hydroxypropanamido)succinamide] ({Propanoyl(3-Pip(4-O-2-BnPh))}-VSN[βAla]K(BODIPY(FL))-NH2), the Kb at human H1R (read-out: KB (converted)) was 112 nM. Besides, at Nluc-H1R, binding was characterised by a dissociation constant (Kd) of 1290 nM and the pKD was 5.89 ± 0.10.
Turning to `Cc1cc(C)n2c1C=C1C=CC(CCC(=O)NCCCCCC(=O)NCCCC[C@H](NC(=O)CCNC(=O)[C@H](CC(N)=O)NC(=O)[C@H](CO)NC(=O)[C@@H](NC(=O)CCN3CCC(Oc4ccccc4Cc4ccccc4)CC3)C(C)C)C(N)=O)=[N+]1[B-]2(F)F` [Compound 38e, (S)-N^1-(3-(((S)-1-Amino-6-(6-(3-(5,5-difluoro-7,9-dimethyl-5H-4λ^4,5λ^4-dipyrrolo[1,2-c:2’,1’-f][1,3,2]diazaborinin-3-yl)propanamido)hexanamido)-1-oxohexan-2-yl)amino)-3-oxopropyl)-2-((S)-2-((S)-2-(3-(4-(2-benzylphenoxy)piperidin-1-yl)propanamido)-3-methylbutanamido)-3-hydroxypropanamido)succinamide] ({Propanoyl(3-Pip(4-O-2-BnPh))}-VSN[βAla]K([Ahx-BODIPY(FL)])-NH2), on Nluc-H1R, the Kd stood at 5250 nM and the pKD was 5.28 ± 0.06.
For `CC(C)[C@H](NC(=O)CCN1CCC(Oc2ccccc2Cc2ccccc2)CC1)C(=O)N[C@@H](CO)C(=O)N[C@@H](CC(N)=O)C(=O)NCCC(=O)N[C@@H](CCCCNC(=O)CCCCC[N+]1=C(/C=C/C=C/C=C2/N(C)c3ccc(S(=O)(=O)[O-])cc3C2(C)C)C(C)(C)c2cc(S(=O)(=O)O)ccc21)C(N)=O` [Compound 38f, 1-((5S,8S,11S,18S)-11-(2-Amino-2-oxoethyl)-1-(4-(2-benzylphenoxy)piperidin-1-yl)-18-carbamoyl-8-(hydroxymethyl)-5-isopropyl-3,6,9,12,16,24-hexaoxo-4,7,10,13,17,23-hexaazanonacosan-29-yl)-3,3-dimethyl-2-((1E,3E)-5-((E)-1,3,3-trimethyl-5-sulfonatoindolin-2-ylidene)penta-1,3-dien-1-yl)-3H-indol-1-ium-5-sulfonate], the Kb at human H1R (read-out: KB (converted)) was 4680 nM. Further, on Nluc-H1R, the Kd was 2190 nM and the pKD was determined as 5.66 ± 0.02.
`C[C@H](NC(=O)[C@H](C)NC(=O)[C@H](Cc1ccccc1)NC(=O)CCN1CCC(Oc2ccccc2Cc2ccccc2)CC1)C(=O)NCCC(=O)N[C@@H](CCCCNC(=O)CCCCCNC(=O)COc1ccc(/C=C/C2=[N+]3C(=Cc4ccc(-c5cccs5)n4[B-]3(F)F)C=C2)cc1)C(N)=O` [Compound 39a, N-((5S,8S,11S,18S)-5-Benzyl-1-(4-(2-benzylphenoxy)piperidin-1-yl)-18-carbamoyl-8,11-dimethyl-3,6,9,12,16-pentaoxo-4,7,10,13,17-pentaazadocosan-22-yl)-6-(2-(4-((E)-2-(5,5-difluoro-7-(thiophen-2-yl)-5H-4λ^4,5λ^4-dipyrrolo[1,2-c:2’,1’-f][1,3,2]diazaborinin-3-yl)vinyl)phenoxy)acetamido)hexanamide] ({Propanoyl(3-Pip(4-O-2-BnPh))}-FAA[βAla]K([Ahx-X1])-NH2): on Nluc-H1R, binding was characterised by a dissociation constant (Kd) of 10 nM and the pKD worked out at 7.98 ± 0.01.
On to `Cc1cc(C)n2c1C=C1C=CC(/C=C/c3ccc(OCC(=O)NCCCC[C@H](NC(=O)CCNC(=O)[C@H](C)NC(=O)[C@H](C)NC(=O)[C@H](Cc4ccccc4)NC(=O)CCN4CCC(Oc5ccccc5Cc5ccccc5)CC4)C(N)=O)cc3)=[N+]1[B-]2(F)F` [Compound 39b, (S)-2-((6S,9S,12S)-12-Benzyl-16-(4-(2-benzylphenoxy)piperidin-1-yl)-6,9-dimethyl-5,8,11,14-tetraoxo-4,7,10,13-tetraazahexadecanamido)-6-(2-(4-((E)-2-(5,5-difluoro-7,9-dimethyl-5H-5λ^4,6λ^4-dipyrrolo[1,2-c:2’,1’-f][1,3,2]diazaborinin-3-yl)vinyl)phenoxy)acetamido)hexanamide] ({Propanoyl(3-Pip(4-O-2-BnPh))}-FAA[βAla]K(X3)-NH2), for which the Kb at human H1R (read-out: KB (converted)) was 102 nM. At Nluc-H1R, this molecule gave a Kd of 44 nM and a pKD of 7.36 ± 0.03.
With `C[C@H](NC(=O)[C@H](C)NC(=O)[C@H](Cc1ccccc1)NC(=O)CCN1CCC(Oc2ccccc2Cc2ccccc2)CC1)C(=O)NCCC(=O)N[C@@H](CCCCNC(=O)CCC1=[N+]2C(=Cc3ccc(-c4cccs4)n3[B-]2(F)F)C=C1)C(N)=O` [Compound 39c, (S)-2-((6S,9S,12S)-12-Benzyl-16-(4-(2-benzylphenoxy)piperidin-1-yl)-6,9-dimethyl-5,8,11,14-tetraoxo-4,7,10,13-tetraazahexadecanamido)-6-(3-(5,5-difluoro-7-(thiophen-2-yl)-5H-5λ^4,6λ^4-dipyrrolo[1,2-c:2’,1’-f][1,3,2]diazaborinin-3-yl)propanamido)hexanamide] ({Propanoyl(3-Pip(4-O-2-BnPh))}-FAA[βAla]K(X2)-NH2), the Kb on human H1R (read-out: KB (converted)) is 363 nM. On Nluc-H1R, this molecule had a Kd of 724 nM and a pKD of 6.14 ± 0.06.
At Nluc-H1R, `Cc1cc(C)n2c1C=C1C=CC(CCC(=O)NCCCCCC(=O)NCCCC[C@H](NC(=O)CCNC(=O)[C@H](C)NC(=O)[C@H](C)NC(=O)[C@H](Cc3ccccc3)NC(=O)CCN3CCC(Oc4ccccc4Cc4ccccc4)CC3)C(N)=O)=[N+]1[B-]2(F)F` [Compound 39e, N-((5S,8S,11S,18S)-5-Benzyl-1-(4-(2-benzylphenoxy)piperidin-1-yl)-18-carbamoyl-8,11-dimethyl-3,6,9,12,16-pentaoxo-4,7,10,13,17-pentaazadocosan-22-yl)-6-(3-(5,5-difluoro-7,9-dimethyl-5H-4λ^4,5λ^4-dipyrrolo[1,2-c:2’,1’-f][1,3,2]diazaborinin-3-yl)propanamido)hexanamide] ({Propanoyl(3-Pip(4-O-2-BnPh))}-FAA[βAla]K([Ahx-BODIPY(FL)])-NH2) gave a Kd of 2690 nM and a negative-log KD (pKD) of 5.57 ± 0.05.

(Values after PMC9234962, “Optimization of Peptide Linker-Based Fluorescent Ligands for the Histamine H1 Receptor” (Journal of Medicinal Chemistry, 2022).)
